Data reported in US20110142802A1, “FUNGICIDAL COMPOSITIONS” (SYNGENTA CROP PROTECTION, INC., priority 2008, published 2011).
“And” between values parts separate entries of the source, which are not always exact repeats. Identical values can stand only once.

Columns and labels:
[1] = test system: Mycosphaerella graminicola (Septoria tritici; SEPTTR); assay: Growth inhibition of Mycosphaerella graminicola in nutrient broth, 96-well microtiter plate, photometric; type: cell-based; settings: 4 days
Source text: A synergistic effect exists whenever the action of an active ingredient combination is greater than the sum of the actions of the individual components. The action to be expected E for a given active ingredient combination obeys the so-called COLBY formula and can be calculated as follows (COLBY, S. R. “Calculating synergistic and antagonistic responses of herbicide combination”. Weeds, Vol. 15, pages 20-22; 1967): ppm=milligrams of active ingredient (=a.i.) per liter of spray mixture X=% action by active ingredient A) using p ppm of active ingredient Y=% action by active ingredient B) using q ppm of active ingredient. According to COLBY, the expected (additive) action of active ingredients A)+B) using p+q ppm of active ingredient is If the action actually observed (O) is greater than the expected action (E), then the action of the combination is super-additive, i.e. there is a synergistic effect. In mathematical terms, synergism corresponds to a positive value for the difference of (O-E). In the case of purely complementary addition of activities (expected activity), said difference (O-E) is zero. A negative value of said difference (O-E) signals a loss of activity compared to the expected activity. Mycosphaerella graminicola (Septoria tritici; […]): Conidia of the fungus from cryogenic storage are directly mixed into nutrient broth (PDB potato dextrose broth). After placing a (DMSO) solution of the test compounds into a microtiter plate (96-well format) the nutrient broth containing the fungal spores is added.

[2] = test system: Mycosphaerella arachidis (Cercospora arachidicola; MYCOAR); assay: Growth inhibition of Mycosphaerella arachidis in nutrient broth, 96-well microtiter plate, photometric at 620 nm; type: cell-based; settings: 8 days
Source text: A synergistic effect exists whenever the action of an active ingredient combination is greater than the sum of the actions of the individual components. The action to be expected E for a given active ingredient combination obeys the so-called COLBY formula and can be calculated as follows (COLBY, S. R. “Calculating synergistic and antagonistic responses of herbicide combination”. Weeds, Vol. 15, pages 20-22; 1967): ppm=milligrams of active ingredient (=a.i.) per liter of spray mixture X=% action by active ingredient A) using p ppm of active ingredient Y=% action by active ingredient B) using q ppm of active ingredient. According to COLBY, the expected (additive) action of active ingredients A)+B) using p+q ppm of active ingredient is If the action actually observed (O) is greater than the expected action (E), then the action of the combination is super-additive, i.e. there is a synergistic effect. In mathematical terms, synergism corresponds to a positive value for the difference of (O-E). In the case of purely complementary addition of activities (expected activity), said difference (O-E) is zero. A negative value of said difference (O-E) signals a loss of activity compared to the expected activity. Mycosphaerella arachidis (Cercospora arachidicola; MYCOAR): Conidia of the fungus from cryogenic storage are directly mixed into nutrient broth (PDB potato dextrose broth). After placing a (DMSO) solution of the test compounds into a microtiter plate (96-well format) the nutrient broth containing the fungal spores is added.

[3] = test system: Pyrenophora teres (PYRNTE); assay: Growth inhibition of Pyrenophora teres in nutrient broth, 96-well microtiter plate, photometric; type: cell-based; settings: 3 days
Source text: A synergistic effect exists whenever the action of an active ingredient combination is greater than the sum of the actions of the individual components. The action to be expected E for a given active ingredient combination obeys the so-called COLBY formula and can be calculated as follows (COLBY, S. R. “Calculating synergistic and antagonistic responses of herbicide combination”. Weeds, Vol. 15, pages 20-22; 1967): ppm=milligrams of active ingredient (=a.i.) per liter of spray mixture X=% action by active ingredient A) using p ppm of active ingredient Y=% action by active ingredient B) using q ppm of active ingredient. According to COLBY, the expected (additive) action of active ingredients A)+B) using p+q ppm of active ingredient is If the action actually observed (O) is greater than the expected action (E), then the action of the combination is super-additive, i.e. there is a synergistic effect. In mathematical terms, synergism corresponds to a positive value for the difference of (O-E). In the case of purely complementary addition of activities (expected activity), said difference (O-E) is zero. A negative value of said difference (O-E) signals a loss of activity compared to the expected activity. Pyrenophora teres ([…]): Conidia of the fungus from cryogenic storage are directly mixed into nutrient broth (PDB potato dextrose broth). After placing a (DMSO) solution of the test compounds into a microtiter plate (96-well format) the nutrient broth containing the fungal spores is added.

[4] = test system: Alternaria solani (ALTESO); assay: Growth inhibition of Alternaria solani in nutrient broth, 96-well microtiter plate, photometric; type: cell-based; settings: 3 days
Source text: A synergistic effect exists whenever the action of an active ingredient combination is greater than the sum of the actions of the individual components. The action to be expected E for a given active ingredient combination obeys the so-called COLBY formula and can be calculated as follows (COLBY, S. R. “Calculating synergistic and antagonistic responses of herbicide combination”. Weeds, Vol. 15, pages 20-22; 1967): ppm=milligrams of active ingredient (=a.i.) per liter of spray mixture X=% action by active ingredient A) using p ppm of active ingredient Y=% action by active ingredient B) using q ppm of active ingredient. According to COLBY, the expected (additive) action of active ingredients A)+B) using p+q ppm of active ingredient is If the action actually observed (O) is greater than the expected action (E), then the action of the combination is super-additive, i.e. there is a synergistic effect. In mathematical terms, synergism corresponds to a positive value for the difference of (O-E). In the case of purely complementary addition of activities (expected activity), said difference (O-E) is zero. A negative value of said difference (O-E) signals a loss of activity compared to the expected activity. Alternaria solani ([…]): Conidia harvested from a freshly grown colony of the fungus are directly mixed into nutrient broth (PDB potato dextrose broth). After placing a (DMSO) solution of the test compounds into a microtiter plate (96-well format) the nutrient broth containing the fungal spores is added.

[5] = single active ingredient 0.0039 mg/L (ppm ai)
[6] = single active ingredient 0.0078 mg/L (ppm ai)
[7] = single active ingredient 0.0156 mg/L (ppm ai)
[8] = single active ingredient 0.0313 mg/L (ppm ai)
[9] = single active ingredient 0.0625 mg/L (ppm ai)
[10] = single active ingredient 0.125 mg/L (ppm ai)
[11] = single active ingredient 0.25 mg/L (ppm ai)
[12] = single active ingredient 0.5 mg/L (ppm ai)

## N#Cc1c(Cl)c(Cl)c(Cl)c(C#N)c1Cl [Chlorothalonil, chlorothalonil]
[1]; [5]
  Observed control in % (% Cobs): 3.0%
[1]; [6]
  Observed control in % (% Cobs): 0.0%
[1]; [7]
  Observed control in % (% Cobs): 0.7%
[1]; [8]
  Observed control in % (% Cobs): 0.0%
[2]; [8]
  Observed control in % (% Cobs): 7.6%
[2]; [9]
  Observed control in % (% Cobs): 8.2%
[2]; [10]
  Observed control in % (% Cobs): 9.9%

## OC(Cc1ccccc1Cl)(Cn1nc[nH]c1=S)C1(Cl)CC1 (centres unmarked) [Prothioconazole, prothioconazole]
[3]; [9]
  Observed control in % (% Cobs): 28.9%
[3]; [10]
  Observed control in % (% Cobs): 50.1%
[3]; [11]
  Observed control in % (% Cobs): 66.6%
[2]; [7]
  Observed control in % (% Cobs): 22.0%
[2]; [8]
  Observed control in % (% Cobs): 59.1%

## CC(C1CC1)C(O)(Cn1cncn1)c1ccc(Cl)cc1 (centres unmarked) [Cyproconazole, cyproconazole]
[1]; [5]
  Observed control in % (% Cobs): 2.3%
[1]; [6]
  Observed control in % (% Cobs): 2.8%
[1]; [7]
  Observed control in % (% Cobs): 4.7%
[1]; [8]
  Observed control in % (% Cobs): 1.9%
[1]; [9]
  Observed control in % (% Cobs): 0.6%
[3]; [9]
  Observed control in % (% Cobs): 0.0%
[3]; [10]
  Observed control in % (% Cobs): 0.0%
[3]; [11]
  Observed control in % (% Cobs): 15.1%

## Cc1cc(C2CC2)nc(Nc2ccccc2)n1 [Cyprodinil, cyprodinil]
[3]; [9]
  Observed control in % (% Cobs): 23.8%
[3]; [10]
  Observed control in % (% Cobs): 45.1%

## CC1COC(Cn2cncn2)(c2ccc(Oc3ccc(Cl)cc3)cc2Cl)O1 (centres unmarked) [Difenoconazole, difenoconazole]
[4]; [9]
  Observed control in % (% Cobs): 37.6%
[4]; [10]
  Observed control in % (% Cobs): 36.9%
[2]; [7]
  Observed control in % (% Cobs): 66.5%

## CN1COCN(Cc2cnc(Cl)s2)/C1=N\[N+](=O)[O-] [Thiomethoxam, thiamethoxam]
[1]; [5]
  Observed control in % (% Cobs): 1.8%
[1]; [6]
  Observed control in % (% Cobs): 1.6%
[1]; [7]
  Observed control in % (% Cobs): 0.0%
[1]; [8]
  Observed control in % (% Cobs): 2.9%
[1]; [9]
  Observed control in % (% Cobs): 0.0%
[3]; [9]
  Observed control in % (% Cobs): 0.0%
[3]; [10]
  Observed control in % (% Cobs): 0.0%
[3]; [11]
  Observed control in % (% Cobs): 0.0%

## Cc1nnc(Cl)c(-c2c(F)cccc2Cl)c1-c1ccc(Cl)nc1 [Compound A-1.2, 3-chloro-5-(6-chloro-pyridin-3-yl)-6-methyl-4-(2-chloro-6-fluoro-phenyl)-pyridazine]
other
  melting point: 166 to 167 °C

## mancozeb
[4]; [11]
  Observed control in % (% Cobs): 0.7%

## COc1nnc(C)c(-c2ccc(Cl)nc2)c1-c1c(F)cc(F)cc1F [Compound A-1.3, 4-(6-chloro-pyridin-3-yl)-6-methoxy-3-methyl-5-(2,4,6-trifluoro-phenyl)-pyridazine]
other
  melting point: 123 to 124 °C

## Fc1ccc([C@]2(Cn3cncn3)O[C@H]2c2ccccc2Cl)cc1 (racemic) [Epoxiconazole, epoxiconazole]
[1]; [9]
  Observed control in % (% Cobs): 6.8%
[1]; [10]
  Observed control in % (% Cobs): 18.0%
[1]; [11]
  Observed control in % (% Cobs): 36.8%
[1]; [12]
  Observed control in % (% Cobs): 51.8%
[4]; [9]
  Observed control in % (% Cobs): 0.0%
[4]; [10]
  Observed control in % (% Cobs): 24.3%
[4]; [11]
  Observed control in % (% Cobs): 28.9%

## Cc1nnc(Cl)c(-c2c(F)cc(F)cc2F)c1-c1ccc(Cl)nc1 [Compound A-1.1, 3-chloro-5-(6-chloro-pyridin-3yl)-6-methyl-4-(2,4,6-trifluoro-phenyl)-pyridazine]
[1]; [7]
  Observed control in % (% Cobs): 1.4% and 0.3% and 1.6% and 3.4%
[1]; [8]
  Observed control in % (% Cobs): 3.7% and 5.3% and 6.3%
[1]; [9]
  Observed control in % (% Cobs): 14.9% and 13.0% and 15.1% and 13.7%
[1]; [10]
  Observed control in % (% Cobs): 59.1% and 67.2% and 58.5% and 80.1%
[4]; [11]
  Observed control in % (% Cobs): 13.3% and 7.0%
[4]; [12]
  Observed control in % (% Cobs): 28.4% and 39.9%
[4]; single active ingredient 1.0 mg/L (ppm ai)
  Observed control in % (% Cobs): 38.8%
[2]; [8]
  Observed control in % (% Cobs): 6.7%
[2]; [9]
  Observed control in % (% Cobs): 3.5% and 5.1%
[2]; [11]
  Observed control in % (% Cobs): 51.3% and 56.5%
other
  melting point: 182 to 183 °C

## CO/C=C(/C(=O)OC)c1ccccc1Oc1cc(Oc2ccccc2C#N)ncn1 [Azoxystrobin, azoxystrobin]
[2]; [8]
  Observed control in % (% Cobs): 44.8%
[2]; [9]
  Observed control in % (% Cobs): 76.4%
